Converted amounts (≈) assume the structure as drawn.
Experiments:
Assay in all cases: microbe, parasite or virus in culture
[1] = tested on: P. aeruginosa PA259-96196; assay type: cell-based, Pseudomonas aeruginosa; conditions: P. aeruginosa 259-96196; for MIC: Pseudomonas aeruginosa, PA25996196, 18 h, read-out: MICs of various antibiotics
Description: (§1) The in vitro antibacterial activity of the UTBLPs was assessed against wild-type and clinically isolated bacterial strains. To obtain the MIC of the compounds, the microbroth dilution susceptibility assay was performed according to the Clinical and Laboratory Standards Institute (CLSI, Wayne, PA, USA) guidelines and as previously described. Briefly, the compounds at varying concentrations were incubated with bacterial inoculum (5 × 10^5 CFU/mL final concentration) at 37 °C for 18 h. Growth in the form of turbidity was confirmed using an EMax Plus microplate reader (Molecular Devices, San Jose, CA, USA) at 590 nm.

[2] = tested on: P. aeruginosa PA262-101856; assay type: cell-based, Pseudomonas aeruginosa; conditions: P. aeruginosa 262-101856; for MIC: Pseudomonas aeruginosa, PA262101856, 18 h, read-out: MICs of various antibiotics
Description: as §1

A. baumannii AB027 = assay type: cell-based, Acinetobacter baumannii; conditions: A. baumannii AB027; for MIC: Acinetobacter baumannii, 18 h, read-out: MICs of various antibiotics
Description: as §1

A. baumannii AB92247 = assay type: cell-based, Acinetobacter baumannii; conditions: A. baumannii 92247; for MIC: Acinetobacter baumannii, AB92247, 18 h, read-out: MICs of various antibiotics
Description: as §1

E. coli 94393 = assay type: cell-based, Escherichia coli; conditions: E. coli 94393 (mcr-1 +); for MIC: Escherichia coli, 18 h, read-out: MICs of various antibiotics
Description: as §1

E. coli 94474 = assay type: cell-based, Escherichia coli; conditions: E. coli 94474 (mcr-1 +); for MIC: Escherichia coli, 18 h, read-out: MICs of various antibiotics
Description: as §1

E. cloacae 118564 = assay type: cell-based, Enterobacter cloacae; conditions: E. cloacae 118564; for MIC: Enterobacter cloacae, 18 h, read-out: MICs of various antibiotics
Description: as §1

K. pneumoniae 113250 = assay type: cell-based, Klebsiella pneumoniae; conditions: K. pneumoniae 113250; for MIC: Klebsiella pneumoniae, 18 h, read-out: MICs of various antibiotics
Description: as §1

Molecule	MIC [1]	MIC [2]	MIC (A. baumannii AB027)	MIC (A. baumannii AB92247)	MIC (E. coli 94393)	MIC (E. coli 94474)	MIC (E. cloacae 118564)	MIC (K. pneumoniae 113250)	MICs of various antibiotics [1]	MICs of various antibiotics [2]	MICs of various antibiotics (A. baumannii AB027)	MICs of various antibiotics (A. baumannii AB92247)	MICs of various antibiotics (E. coli 94393)	MICs of various antibiotics (E. coli 94474)	MICs of various antibiotics (E. cloacae 118564)	MICs of various antibiotics (K. pneumoniae 113250)
CO/N=C(\C(=O)N[C@@H]1C(=O)N2C(C(=O)[O-])=C(C[N+]3(C)CCCC3)CS[C@H]12)c1csc(N)n1 [CPM, cefepime]	> 64 µg/mL	32 µg/mL (≈ 66.6 µM)	> 128 µg/mL	4 µg/mL (≈ 8.32 µM)	≤ 0.25 µg/mL	≤ 0.25 µg/mL	0.25 µg/mL (≈ 0.52 µM)	1 µg/mL (≈ 2.08 µM)								
colistin [CST]									1 µg/mL	1 µg/mL	0.25 µg/mL	4 µg/mL	4 µg/mL	16 µg/mL	> 16 µg/mL	> 16 µg/mL
NCC[C@H](O)C(=O)N[C@@H]1C[C@H](N)[C@@H](O[C@H]2O[C@H](CN)[C@@H](O)[C@H](O)[C@H]2O)[C@H](O)[C@H]1O[C@H]1O[C@H](CO)[C@@H](O)[C@H](N)[C@H]1O [AMK, amikacin]	> 64 µg/mL	> 64 µg/mL	> 64 µg/mL	< 1 µg/mL	2 µg/mL (≈ 3.42 µM)	2 µg/mL (≈ 3.42 µM)	2 µg/mL (≈ 3.42 µM)	≤ 1 µg/mL								
Cc1nnc(SCC2=C(C(=O)O)N3C(=O)[C@@H](NC(=O)Cn4cnnn4)[C@H]3SC2)s1 [CFZ, cefazolin]	> 128 µg/mL	> 128 µg/mL	> 128 µg/mL	128 µg/mL (≈ 282 µM)	1 µg/mL (≈ 2.2 µM)	4 µg/mL (≈ 8.8 µM)	> 128 µg/mL	1 µg/mL (≈ 2.2 µM)								
CO[C@@]1(NC(=O)Cc2cccs2)C(=O)N2C(C(=O)O)=C(COC(N)=O)CS[C@@H]21 [FOX, cefoxitin]	> 32 µg/mL	> 32 µg/mL		32 µg/mL (≈ 74.9 µM)	4 µg/mL (≈ 9.36 µM)	16 µg/mL (≈ 37.4 µM)	> 32 µg/mL	1 µg/mL (≈ 2.34 µM)								
C[C@@H](O)[C@H]1C(=O)N2C(C(=O)O)=C(S[C@@H]3CN[C@H](C(=O)N(C)C)C3)[C@H](C)[C@H]12 [MER, meropenem]	1020 µg/mL (≈ 2670 µM)	32 µg/mL (≈ 83.4 µM)	16 µg/mL (≈ 41.7 µM)	4 µg/mL (≈ 10.4 µM)	≤ 0.03 µg/mL	≤ 0.03 µg/mL	0.12 µg/mL (≈ 0.313 µM)	≤ 0.03 µg/mL								

Source: publication PMC8963254, “Effects of Lysine N-ζ-Methylation in Ultrashort Tetrabasic Lipopeptides (UTBLPs) on the Potentiation of Rifampicin, Novobiocin, and Niclosamide in Gram-Negative Bacteria” (Antibiotics, 2022)
